The values below are quoted from earlier work in patent US20110281902A1, “COMBINATIONS COMPRISING A PROTEIN KINASE INHIBITOR BEING A PYRIMIDYLAMINOBENZAMIDE COMPOUND AND A HSP90 INHIBITOR SUCH AS 17-AAG” (priority 2005, published 2011).

For data set [1] the following is noted: clinical trials in hematological malignancies and solid tumors.
For data set [2] the following is noted: makes it difficult to formulate/administer.

For `C=CCNC1=C2C[C@@H](C)C[C@H](OC)[C@H](O)[C@@H](C)/C=C(\C)[C@H](OC(N)=O)[C@@H](OC)/C=C\C=C(/C)C(=O)NC(=CC1=O)C2=O` [17-AAG, 17-allylamino-17-demethoxygeldanamycin], the dose limiting toxicity entry in data set [1] is listed as “hepatic”. Moreover, in data set [2], the solubility entry is listed as “poor solubility”.
